PubChem BioAssay (NCI)
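Step 1: Grow cells in 96-well plates. Step 2: Expose to compound for 48 hours at 5 concentrations. Step 3: Interpolate endpoints linearly; if unreached, use highest concentration. Definition used: TGI = concentration required for complete inhibition of growth.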

Legend:
Experiment in all cases: DTP human tumour cell line panel, 48 h
[1] = system: HS 578T breast
[2] = system: SNB-19 CNS
[3] = system: SW-620 colon
[4] = system: U251 CNS
[5] = system: OVCAR-4 ovarian
[6] = system: OVCAR-8 ovarian
[7] = system: MDA-MB-231 breast
[8] = system: SK-MEL-2 melanoma
[9] = system: MDA-MB-435
[10] = system: HL-60(TB) leukemia
[11] = system: NCI-H522 lung
[12] = system: PC-3 prostate
[13] = system: CAKI-1 renal
[14] = system: SNB-75 CNS
[15] = system: OVCAR-5 ovarian
[16] = system: ACHN renal
[17] = system: SF-539 CNS
[18] = system: MALME-3M melanoma
[19] = system: NCI-H460 lung
[20] = system: MCF7 breast
[21] = system: A549 NSCLC
[22] = system: HCC-2998 colon
[23] = system: T-47D breast
[24] = system: CCRF-CEM leukemia
[25] = system: HT29 colon
[26] = system: K-562 leukemia
[27] = system: NCI-H226 lung
[28] = system: DU-145 prostate
[29] = system: SF-268 CNS
[30] = system: SR leukemia
[31] = system: UACC-62 melanoma
[32] = system: EKVX NSCLC
[33] = system: M14 melanoma
[34] = system: TK-10 renal
[35] = system: SF-295 CNS
[36] = system: SK-OV-3 ovarian
[37] = system: UO-31 renal
[38] = system: MDA-N
[39] = system: RPMI-8226 leukemia
[40] = system: 786-0 renal
[41] = system: OVCAR-3 ovarian
[42] = system: A498 renal
[43] = system: SK-MEL-5 melanoma
[44] = system: LOX IMVI melanoma
[45] = system: HOP-62 NSCLC
[46] = system: SK-MEL-28 melanoma
[47] = system: MOLT-4 leukemia
[48] = system: IGROV1 ovarian
[49] = system: RXF 393 renal
[50] = system: HCT-15 colon
[51] = system: UACC-257 melanoma
[52] = system: KM12 colon
[53] = system: NCI-H23 lung
[54] = system: COLO 205 colon
[55] = system: HOP-92 NSCLC
[56] = system: NCI/ADR-RES ovarian
[57] = system: SN12C renal
[58] = system: BT-549 breast
[59] = system: HCT-116 colon

N#CCN(Cc1ccccc1)[C@@H]1CCC[C@]1(O)C#Cc1ccc2c(c1)OCO2
TGI [1]: 37.2 µM | TGI [2]: 41.5 µM | TGI [3]: 58.6 µM | TGI [4]: 33.9 µM | TGI [5]: 31.2 µM | TGI [6]: 32.2 µM | TGI [7]: 36.1 µM | TGI [8]: 33.1 µM | TGI [9]: 42.1 µM | TGI [10]: 45.1 µM | TGI [11]: 33.7 µM | TGI [12]: 50.7 µM | TGI [13]: 77.4 µM | TGI [14]: > 100 µM | TGI [15]: 33.5 µM | TGI [16]: 36 µM | TGI [17]: 42.3 µM | TGI [18]: 34.3 µM | TGI [19]: 36.1 µM | TGI [20]: 37.9 µM | TGI [21]: 34.1 µM | TGI [22]: 31.5 µM | TGI [23]: 69.5 µM | TGI [24]: 48.1 µM | TGI [25]: 36.1 µM | TGI [26]: 60.4 µM | TGI [27]: 33.6 µM | TGI [28]: > 100 µM | TGI [29]: 41.1 µM | TGI [30]: 40.9 µM | TGI [31]: 37.3 µM | TGI [32]: 55.5 µM | TGI [33]: 32 µM | TGI [34]: 57.2 µM | TGI [35]: 41.8 µM | TGI [36]: 90.1 µM | TGI [37]: > 100 µM | TGI [38]: 34.2 µM | TGI [39]: 42.2 µM | TGI [40]: 29.2 µM | TGI [41]: 28.9 µM | TGI [42]: 35.1 µM | TGI [43]: 30 µM | TGI [44]: 30.9 µM | TGI [45]: 30.8 µM | TGI [46]: 33.3 µM | TGI [47]: 57.1 µM | TGI [48]: 39.7 µM | TGI [49]: 30.3 µM | TGI [50]: 66.7 µM | TGI [51]: 37.9 µM | TGI [52]: 35.4 µM | TGI [53]: 42 µM | TGI [54]: 32.3 µM | TGI [55]: 27 µM | TGI [56]: 51.8 µM

O=C(O)CCc1nc2cc3ccccc3cc2[nH]c1=O
TGI [2]: > 100 µM | TGI [3]: > 100 µM | TGI [4]: > 100 µM | TGI [5]: > 100 µM | TGI [6]: > 100 µM | TGI [7]: > 100 µM | TGI [8]: > 100 µM | TGI [9]: > 100 µM | TGI [11]: > 100 µM | TGI [12]: > 100 µM | TGI [57]: > 100 µM | TGI [13]: > 100 µM | TGI [14]: > 100 µM | TGI [15]: > 100 µM | TGI [16]: > 100 µM | TGI [17]: > 100 µM | TGI [19]: > 100 µM | TGI [20]: > 100 µM | TGI [21]: > 100 µM | TGI [58]: > 100 µM | TGI [22]: > 100 µM | TGI [23]: > 100 µM | TGI [24]: > 100 µM | TGI [25]: > 100 µM | TGI [26]: > 100 µM | TGI [27]: > 100 µM | TGI [28]: > 100 µM | TGI [29]: > 100 µM | TGI [30]: > 100 µM | TGI [31]: > 100 µM | TGI [32]: > 100 µM | TGI [33]: > 100 µM | TGI [34]: > 100 µM | TGI [35]: > 100 µM | TGI [36]: > 100 µM | TGI [59]: > 100 µM | TGI [37]: > 100 µM | TGI [38]: > 100 µM | TGI [40]: > 100 µM | TGI [41]: > 100 µM | TGI [42]: > 100 µM | TGI [43]: > 100 µM | TGI [44]: > 100 µM | TGI [45]: > 100 µM | TGI [46]: > 100 µM | TGI [47]: > 100 µM | TGI [48]: > 100 µM | TGI [49]: > 100 µM | TGI [50]: > 100 µM | TGI [51]: > 100 µM | TGI [52]: > 100 µM | TGI [53]: > 100 µM | TGI [54]: > 100 µM | TGI [55]: > 100 µM | TGI [56]: > 100 µM
